Measured values taken from publication PMC6656724 (Communications Biology, 2019).
“Also recorded” adds a separate entry of the source.

Key:
[1] = biological target: T1, Pseudomonas fluorescens KMO (PfKMO) (Pseudomonas fluorescens, UniProt Q84HF5, C252S/C461S); assay: biochemical
T1 construct: made in house; host or cells: E. coli BL21 (DE3)
Method in brief: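 NADPH consumption followed at 340 nm, initial rates from linear fits, triplicate. IC50 from % inhibition vs inhibitor concentration fitted to the Morrison equation.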

Homo sapiens KMO (HsKMO) = biological target: T2, Homo sapiens KMO (HsKMO) (Homo sapiens, UniProt O15229); assay: KMO inhibition assay, NADPH oxidation at 340 nm (HsKMO); format: biochemical
T2 construct: GST; made in house
T2 sequence (O15229 whole entry): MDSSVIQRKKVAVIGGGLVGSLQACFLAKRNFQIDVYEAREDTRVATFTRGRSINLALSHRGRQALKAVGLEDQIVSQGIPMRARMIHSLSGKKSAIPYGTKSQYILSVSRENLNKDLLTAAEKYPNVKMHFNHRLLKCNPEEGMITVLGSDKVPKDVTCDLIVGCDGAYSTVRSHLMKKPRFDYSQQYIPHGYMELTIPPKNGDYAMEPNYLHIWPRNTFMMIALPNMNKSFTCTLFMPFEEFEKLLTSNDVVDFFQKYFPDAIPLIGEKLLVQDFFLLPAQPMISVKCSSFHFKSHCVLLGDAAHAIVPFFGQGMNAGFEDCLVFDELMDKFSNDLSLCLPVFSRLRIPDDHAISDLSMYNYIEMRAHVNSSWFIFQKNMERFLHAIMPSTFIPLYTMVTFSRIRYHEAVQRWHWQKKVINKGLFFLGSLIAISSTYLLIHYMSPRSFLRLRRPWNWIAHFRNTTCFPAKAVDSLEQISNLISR

[2] = Stability in mouse hepatic microsomes; details: for half-life at 1 µM: mouse, pooled liver microsomes
Description: 3.6.3 Compound stability in mouse hepatic microsomes and rat hepatocytes
A microsomal stability assay was performed as described in the BioFocus Standard
Operating Procedure ADME-SOP-83, using pooled hepatic mouse
Test and control compounds (midazolam,
dextromethorphan), were prepared in DMSO and incubated at an initial concentration
in the presence of the cofactor, NADPH (1 mM). Aliquots were removed at 0, 5, 10,
20 and 40 minutes for termination of reactions and compound extraction with ACN
containing an analytical internal standard. Samples were centrifuged and the
supernatant fractions analysed for parent compound by mass spectrometry (LC-
MS/MS). The amount of compound remaining (expressed as %) was determined from
the MS response in each sample relative to that in the T = 0 samples (normalised for
internal standard). Ln plots of the % remaining were used to determine the half-life
the slope of the Ln % remaining vs time curve. The in vitro intrinsic clearance Clint

K562 cells = assay: Competition assay for uptake of riboflavin; format: cell-based, Human; parameters: key to Mean FL2-A, compound only: relative fluorescence units; details: for Mean FL2-A, compound + riboflavin (RF): 1 µM riboflavin plus 100 µM compound; for Inhibition of riboflavin uptake: 1 µM riboflavin; for Inhibition of riboflavin uptake / Mean FL2-A, compound only: compound 100 µM
Description: Riboflavin transporters are equilibrative rather than concentrative, and the uptake of the inhibitors would be hard to measure directly. To assess whether the KMO inhibitors were substrates for riboflavin transporters, we assessed their ability to compete with riboflavin for uptake into cells. Riboflavin is intensely fluorescent, and is taken up in human cells by three main transporters SLC52A1, SLC52A2 and SLC52A3[28]. […] Consequently, we incubated cells with 1 μM riboflavin in the absence and presence of the various KMO inhibitors. There was a background fluorescence of some 100 relative fluorescence units. […] The data are summarised in Fig. 3c, and are consistent with the view that at least some of the KMO inhibitor uptake is likely to go via riboflavin transporters.
Supplementary Figure 15. A. Uptake of riboflavin into K562 cells. K562 cells were suspended in Dulbecco's phosphate-buffered saline (DPBS) supplemented with 5 mM glucose + 1 % fetal bovine serum (FBS) at a density of 0.5 x 10^6 cells/mL.
Compounds were added to Eppendorf tubes and DMSO removed through drying (vacuum centrifuge). Riboflavin was present at 1 µM and inhibitor 1 or prodrugs at 100 µM. 500 µL cells were added to Eppendorf tubes (containing the compound(s) of interest) and fluorescence measured immediately (excitation 488 nm, emission 525 ± 25nm) in a SONY SH800 flow cytometer over 300 s. Cells were maintained at 37 ℃ throughout in a water bath. Each symbol is the mean fluorescence of ~30 cells observed over a period of 1s. Purple, 1 µM riboflavin only; Red, 100 µM compound only; Blue, 1 µM riboflavin plus 100 µM compound; Green, no additions (control).
Note that the external concentration of riboflavin was rather critical, as the riboflavin transporters also catalyse exchange reactions with their various substrates. B.
Structures of KMO inhibitors and prodrugs and riboflavin, and their maximum common substructures (shown as a blue oval on 1). C. Gating strategy employed in this assay. Gate applied to K562 cell population is marked with a black line. SSC, side scatter, FSC, Forward scatter.
(1 picture or pasted object on this page, not shown here)

[3] = Half-life Mean, mouse hepatic microsomes
[4] = Half-life n=1, mouse hepatic microsomes
[5] = Half-life n=2, mouse hepatic microsomes

T1 sequence (Q84HF5 whole entry C252S/C461S): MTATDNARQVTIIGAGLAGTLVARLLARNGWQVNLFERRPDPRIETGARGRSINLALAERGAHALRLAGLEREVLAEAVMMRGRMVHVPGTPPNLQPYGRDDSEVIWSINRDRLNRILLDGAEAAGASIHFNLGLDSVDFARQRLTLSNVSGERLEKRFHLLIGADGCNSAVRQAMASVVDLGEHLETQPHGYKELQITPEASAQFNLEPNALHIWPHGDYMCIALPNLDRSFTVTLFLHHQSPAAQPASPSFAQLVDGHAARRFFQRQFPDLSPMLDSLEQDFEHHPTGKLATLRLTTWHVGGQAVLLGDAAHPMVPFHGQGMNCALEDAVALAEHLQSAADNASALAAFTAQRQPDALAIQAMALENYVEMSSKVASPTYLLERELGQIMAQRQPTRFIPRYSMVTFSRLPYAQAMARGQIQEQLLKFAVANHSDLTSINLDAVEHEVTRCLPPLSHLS

| Structure (SMILES) | IC50 [1] [µM] | IC50 (Homo sapiens KMO (HsKMO)) [µM] | Mean intrinsic clearance ([2]; mouse hepatic microsomes) | half-life at 1 µM [2, 3] [h] | half-life at 1 µM [2, 4] [h] | half-life at 1 µM [2, 5] [h] | Mean FL2-A, compound + riboflavin (RF) (K562 cells; time 1) | Mean FL2-A, compound + riboflavin (RF) (K562 cells; time 2) | Mean FL2-A, compound + riboflavin (RF) (K562 cells; time 3) | Inhibition of riboflavin uptake (K562 cells) | Mean FL2-A, compound only (K562 cells; time 1) | Mean FL2-A, compound only (K562 cells; time 2) | Mean FL2-A, compound only (K562 cells; time 3) |
| --- | --- | --- | --- | --- | --- | --- | --- | --- | --- | --- | --- | --- | --- |
| CC(CSc1ccc(Cl)cc1)C(=O)O (stereo not shown) [compound 6, 3-[(4-chlorophenyl)thio]-2-methylpropanoic acid] | 85.6 ± 4.4 | 68.6 | < 28 µL/min/mg microsome protein | > 1.67 | > 1.67 | > 1.67 | – | – | – | – | – | – | – |
| Cn1c(C(=O)N[C@@H](C(=O)O)c2ccccc2)cc2cc(F)ccc21 [compound 5, (R)-2-(5-fluoro-1-methyl-1H-indole-2-carboxamido)-2-phenylacetic acid] | 123 ± 8 | 55.3 | < 28 µL/min/mg microsome protein | > 1.67 | > 1.67 | > 1.67 | – | – | – | – | – | – | – |
| COC(=O)CN1C(=O)COc2cc(C)c(Cl)c(C)c21 [1a] | > 500 | ~500 | – | – | – | – | 66.6886 | 77.0559 | 76.3441 | inhibit riboflavin uptake | 62.8068 | 65.3939 | 65.9534 |
| Cc1cc2c(c(C)c1Cl)N(Cc1nn[nH]n1)C(=O)CO2 [1h, 6-chloro-5,7-dimethyl-4-(2H-tetrazol-5-ylmethyl)-1,4-benzoxazin-3-one] | 17 ± 0.43 | 1.28 ± 0.08 | – | – | – | – | – | – | – | – | – | – | – |
| CCOC(=O)CN1C(=O)COc2cc(C)c(Cl)c(C)c21 [1b] | > 300 | > 500 | – | – | – | – | 68.4214 | 59.9856 | 60.5407 | inhibit riboflavin uptake; also recorded: higher inhibition | 59.4089 | 74.4694 | 63.9701 |
| Cc1cc2c(c(C)c1Cl)N(CC(=O)OC(C)C)C(=O)CO2 [1c] | > 300 | > 300 | – | – | – | – | 59.0947 | 60.924 | 73.4972 | inhibit riboflavin uptake | 60.7763 | 66.3048 | 65.3995 |
| Cc1cc2c(c(C)c1Cl)N(CC(=O)O)C(=O)CO2 [compound 1, (6-chloro-5,7-dimethyl-3-oxo-2,3-dihydro-4H-1,4-benzoxazin-4-yl) acetic acid] | – | – | < 28 µL/min/mg microsome protein | > 1.67 | > 1.67 | > 1.67 | 57.8501 | 68.195 | 76.5831 | inhibit riboflavin uptake | 58.5977 | 60.0072 | 67.7034 |
| Oc1ccc(-c2csc3nc(-c4ccccc4)nn23)c(O)c1 [compound 3, 4-(2-phenyl[1,2,4]triazolo[5,1-b][1,3]thiazol-6-yl)benzene-1,3-diol] | 74.7 ± 8 | 2.3 | 49 µL/min/mg microsome protein | 0.983 | 0.8 | 1.15 | – | – | – | – | – | – | – |
